Reference: patent US9493435B2, “IRE-1α inhibitors” (MannKing Corporation, priority 2009, dated 2016)
Where a name gives a salt, the structure may show the parent alone.

Legend:
[1] = target: human IRE-1α (GST-IRE-1α) (Homo sapiens (Human), UniProt O75460); experiment: IRE-1α assay (cleavage of mini-XBP-1 mRNA stem-loop substrate); format: biochemical; details: average IC50 for inhibition of IRE-1α in vitro
Protocol: A fusion protein comprising glutathione S transferase (GST) and human IRE-1α (GST-IRE-1α) obtained from a 500 ml baculovirus-infected insect cell culture can be used to measure IRE-1α activity in vitro. Five μl of a reaction mixture comprising 1× reaction buffer (5× reaction buffer is 100 mM Hepes pH 7.5, 250 mM KOAc, 2.5 mM MgCl2), 3 mM DTT, and 0.4% polyethylene glycol water is added to each well of 384 well plates. Twenty-five nanoliters of a 1 mM test compound solution are added to test wells. […] Negative control wells contain only reaction mixture and test compound. After spinning the plates at 1200 rpm for 30 seconds, 3 μl of an IRE-1α human mini-XBP-1 mRNA stem-loop substrate [NT] ID NO:1), labeled with the fluorescent dye Cy5 at the [NT] end, are added to each well of a control plate. The plates are again spun at 1200 rpm for 30 seconds. […] The plates are covered with lids and incubated for one hour at 30° C. The plates are then transferred to an […] microplate reader. Data is analyzed using data analysis software, and the percent activity of IRE-1α is calculated.

[2] = test system: IRE-1α-mediated XBP-1 splicing in human myeloma MM.1s cells; experiment: Cellular XBP-1 splicing assay in myeloma cells (RT-PCR); format: cell-based; details: Homo sapiens, MM1.S; average EC50, endogenous XBP-1 splicing in myeloma cells, DTT stress
Protocol: After an additional 45 minutes (2 hours total) with compound and DTT, the cells are harvested with TRIZOL® (a mono-phasic solution of phenol and guanidine isothiocyanate), and total RNA is prepared as directed by the manufacturer (Invitrogen). Human XBP-1 is amplified by RT-PCR with the following primers, which flank the 26 base unconventional intron excised by IRE-1α:
RT-PCR of unstressed (U) cells then generates the upper band. When cells are stressed (S) with the endoplasmic reticulum (ER) stressing agent DTT, IRE-1α is activated due to accumulating unfolded protein and the resulting RT-PCR product is 26 base pairs shorter.
Compounds which pass specificity assays are assayed for cellular EC50 using endogenous XBP-1 splicing in myeloma cells. XBP-1 is regulated through the excision of a 26 nucleotide intron from the XBP-1 mRNA by the highly specific endoribonuclease activity of IRE-1α. […] This splicing event is used to measure IRE-1α activity on XBP-1 mRNA in cells and tissues.
Briefly, compounds are incubated in the presence or absence of an ER stress agent (e.g., DTT), and the ratio of XBP-1u (unspliced) to XBP-1s (spliced) is quantified by RT-PCR.

Chain of human IRE-1α (GST-IRE-1α) (O75460 19-977): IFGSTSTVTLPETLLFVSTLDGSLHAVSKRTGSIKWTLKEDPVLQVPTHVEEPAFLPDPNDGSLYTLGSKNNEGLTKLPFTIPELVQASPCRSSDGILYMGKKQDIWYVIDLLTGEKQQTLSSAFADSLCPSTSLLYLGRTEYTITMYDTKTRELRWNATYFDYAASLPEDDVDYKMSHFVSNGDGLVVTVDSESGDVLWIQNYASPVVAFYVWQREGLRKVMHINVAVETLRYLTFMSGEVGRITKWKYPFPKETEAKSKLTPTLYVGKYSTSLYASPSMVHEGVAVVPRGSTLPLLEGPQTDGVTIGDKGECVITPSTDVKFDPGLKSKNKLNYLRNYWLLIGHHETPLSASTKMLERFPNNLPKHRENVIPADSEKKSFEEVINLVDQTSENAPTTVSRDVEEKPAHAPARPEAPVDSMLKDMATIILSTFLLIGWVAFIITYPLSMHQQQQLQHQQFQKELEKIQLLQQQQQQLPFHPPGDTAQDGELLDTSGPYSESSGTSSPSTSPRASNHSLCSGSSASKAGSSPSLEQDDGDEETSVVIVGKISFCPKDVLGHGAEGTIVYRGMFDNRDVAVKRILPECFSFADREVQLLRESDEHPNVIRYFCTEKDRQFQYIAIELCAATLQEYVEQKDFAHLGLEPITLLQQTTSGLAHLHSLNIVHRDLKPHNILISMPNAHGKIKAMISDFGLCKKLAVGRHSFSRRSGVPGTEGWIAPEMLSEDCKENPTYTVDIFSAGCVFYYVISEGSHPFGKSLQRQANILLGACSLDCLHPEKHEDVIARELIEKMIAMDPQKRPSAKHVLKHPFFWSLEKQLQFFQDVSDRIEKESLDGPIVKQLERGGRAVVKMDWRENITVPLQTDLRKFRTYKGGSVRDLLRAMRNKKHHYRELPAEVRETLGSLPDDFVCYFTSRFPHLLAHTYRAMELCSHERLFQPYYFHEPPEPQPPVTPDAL

SMILES: O=Cc1c(O)ccc2cc(-c3cccc(C(=O)N4CCCC4)c3)ccc12 [Compound 1]
- IC50 [1]: < 0.1 µM
- EC50 [2]: < 10 µM

SMILES: CCN(CC)C(=O)c1ccc(-c2ccc3c(C=O)c(O)ccc3c2)cc1 [Compound 2]
- IC50 [1]: < 1 µM
- EC50 [2]: < 10 µM

SMILES: O=Cc1c(O)ccc2cc(-c3ccc(C(=O)N4CCCC4)cc3)ccc12 [Compound 3]
- IC50 [1]: < 1 µM
- EC50 [2]: < 10 µM

SMILES: COCCNC(=O)c1cccc(-c2ccc3c(C=O)c(O)ccc3c2)c1 [Compound 4]
- IC50 [1]: < 0.1 µM
- EC50 [2]: < 10 µM

SMILES: CN1CCN(C(=O)c2ccc(-c3ccc4c(C=O)c(O)ccc4c3)cc2)CC1 [Compound 5]
- IC50 [1]: < 0.1 µM
- EC50 [2]: < 10 µM

SMILES: COCCNC(=O)c1cccc(-c2ccc3c(C=O)c(O)ccc3c2)n1 [Compound 6]
- IC50 [1]: < 0.1 µM
- EC50 [2]: > 10 µM

SMILES: CCN(CC)C(=O)c1cccc(-c2ccc3c(C=O)c(O)ccc3c2)n1 [Compound 7]
- IC50 [1]: < 1 µM
- EC50 [2]: 10 µM

SMILES: CNC(=O)c1cccc(-c2ccc3c(C=O)c(O)ccc3c2)c1 [Compound 8]
- IC50 [1]: < 0.1 µM
- EC50 [2]: < 10 µM

SMILES: CNC(=O)c1ccc(-c2ccc3c(C=O)c(O)ccc3c2)cc1 [Compound 9]
- IC50 [1]: > 1 µM
- EC50 [2]: > 10 µM

SMILES: COCCNC(=O)c1ccc(-c2ccc3c(C=O)c(O)ccc3c2)cc1 [Compound 10]
- IC50 [1]: < 1 µM
- EC50 [2]: < 10 µM

SMILES: CNC(=O)c1ccc(-c2ccc3c(C=O)c(O)ccc3c2)s1 [Compound 11]
- IC50 [1]: < 1 µM
- EC50 [2]: 10 µM

SMILES: CN(C)C(=O)c1ccc(-c2ccc3c(C=O)c(O)ccc3c2)s1 [Compound 12]
- IC50 [1]: < 1 µM
- EC50 [2]: 10 µM

SMILES: CNC(=O)c1cccc(-c2ccc3c(C=O)c(O)ccc3c2)n1 [Compound 13]
- IC50 [1]: < 0.1 µM
- EC50 [2]: > 10 µM

SMILES: O=Cc1c(O)ccc2cc(-c3cccc(C(=O)N4CCCC4)n3)ccc12 [Compound 14]
- IC50 [1]: < 0.1 µM
- EC50 [2]: < 10 µM

SMILES: COCCNC(=O)c1ccc(-c2ccc3c(C=O)c(O)ccc3c2)s1 [Compound 15]
- IC50 [1]: < 1 µM
- EC50 [2]: > 10 µM

SMILES: CCCNC(=O)c1cccc(-c2ccc3c(C=O)c(O)ccc3c2)n1 [Compound 16]
- IC50 [1]: < 0.1 µM
- EC50 [2]: 10 µM

SMILES: COc1ccc(CNC(=O)c2cccc(-c3ccc4c(C=O)c(O)ccc4c3)n2)cc1 [Compound 17]
- IC50 [1]: < 1 µM
- EC50 [2]: > 10 µM

SMILES: CCOC(=O)/C=C/c1ccc2c(C=O)c(O)ccc2c1 [Compound 22]
- IC50 [1]: < 1 µM
- EC50 [2]: < 10 µM

SMILES: O=Cc1c(O)ccc2cc(/C=C/C(=O)O)ccc12 [Compound 23]
- IC50 [1]: < 1 µM
- EC50 [2]: 10 µM

SMILES: O=Cc1c(O)ccc2cc(-c3cc(C(=O)N4CCOCC4)ccc3Cl)ccc12 [Compound 24]
- IC50 [1]: > 1 µM
- EC50 [2]: > 10 µM

SMILES: Cc1cc(C(=O)N2CCOCC2)sc1-c1ccc2c(C=O)c(O)ccc2c1 [Compound 25]
- IC50 [1]: < 0.1 µM
- EC50 [2]: > 10 µM

SMILES: CN(C)C(=O)c1ccc(Cl)c(-c2ccc3c(C=O)c(O)ccc3c2)c1 [Compound 26]
- IC50 [1]: > 1 µM
- EC50 [2]: > 10 µM

SMILES: CN1CCN(C(=O)c2ccc(Cl)c(-c3ccc4c(C=O)c(O)ccc4c3)c2)CC1 [Compound 27]
- IC50 [1]: < 1 µM
- EC50 [2]: > 10 µM

SMILES: CN(C)C(=O)c1ccc(-c2ccc3c(C=O)c(O)ccc3c2)c(Cl)c1 [Compound 28]
- IC50 [1]: > 1 µM
- EC50 [2]: > 10 µM

SMILES: O=Cc1c(O)ccc2cc(-c3ccc(C(=O)N4CCOCC4)cc3Cl)ccc12 [Compound 29]
- IC50 [1]: < 1 µM
- EC50 [2]: > 10 µM

SMILES: CN1CCN(C(=O)c2ccc(Cl)c(-c3ccc4c(C=O)c(O)ccc4c3)c2)CC1 [Compound 30]
- IC50 [1]: < 1 µM

SMILES: CN(C)C(=O)/C=C/c1ccc2c(C=O)c(O)ccc2c1 [Compound 31]
- IC50 [1]: < 0.1 µM
- EC50 [2]: > 10 µM

SMILES: O=Cc1c(O)ccc2cc(/C=C/C(=O)N3CCOCC3)ccc12 [Compound 32]
- IC50 [1]: < 0.1 µM
- EC50 [2]: < 10 µM

SMILES: Cc1cc(C(=O)N(C)C)sc1-c1ccc2c(C=O)c(O)ccc2c1 [Compound 33]
- IC50 [1]: < 0.1 µM
- EC50 [2]: < 10 µM

SMILES: Cc1cc(C(=O)N2CCN(C)CC2)sc1-c1ccc2c(C=O)c(O)ccc2c1 [Compound 34]
- IC50 [1]: < 0.1 µM
- EC50 [2]: < 10 µM

SMILES: CN(C)C(=O)c1ccc(-c2ccc3c(C=O)c(O)ccc3c2)o1 [Compound 35]
- IC50 [1]: < 0.1 µM
- EC50 [2]: < 10 µM

SMILES: O=Cc1c(O)ccc2cc(-c3ccc(C(=O)NCCN4CCOCC4)s3)ccc12 [Compound 36]
- IC50 [1]: < 0.1 µM
- EC50 [2]: < 10 µM

SMILES: O=Cc1c(O)ccc2cc(-c3ccc(C(=O)NCCCN4CCOCC4)s3)ccc12 [Compound 37]
- IC50 [1]: < 0.1 µM
- EC50 [2]: < 10 µM

SMILES: CN1CCC(NC(=O)c2ccc(-c3ccc4c(C=O)c(O)ccc4c3)s2)CC1 [Compound 38]
- IC50 [1]: < 1 µM
- EC50 [2]: < 10 µM

SMILES: O=Cc1c(O)ccc2cc(CCC(=O)O)ccc12 [Compound 39]
- IC50 [1]: < 1 µM
- EC50 [2]: > 10 µM

SMILES: CCOC(=O)CCc1ccc2c(C=O)c(O)ccc2c1 [Compound 40]
- IC50 [1]: > 1 µM
- EC50 [2]: > 10 µM

SMILES: O=Cc1c(O)ccc2cc(-c3ccc(C(=O)NCC4CCCCN4)s3)ccc12 (stereo not shown) [Compound 41]
- IC50 [1]: < 0.1 µM
- EC50 [2]: < 10 µM

SMILES: O=Cc1c(O)ccc2cc(-c3ccc(C(=O)NCC4CCCNC4)s3)ccc12 (stereo not shown) [Compound 42]
- IC50 [1]: < 0.1 µM
- EC50 [2]: < 10 µM

SMILES: O=Cc1c(O)ccc2cc(-c3ccc(C(=O)NCC4CCNCC4)s3)ccc12 [Compound 43]
- IC50 [1]: < 0.1 µM
- EC50 [2]: < 10 µM

SMILES: NCCOCCOCCNC(=O)c1ccc(-c2ccc3c(C=O)c(O)ccc3c2)s1 [Compound 45]
- IC50 [1]: < 1 µM
- EC50 [2]: < 10 µM

SMILES: O=Cc1c(O)ccc2cc(-c3ccc(C(=O)NC4CCNCC4)s3)ccc12 [Compound 46]
- IC50 [1]: < 0.1 µM
- EC50 [2]: < 10 µM

SMILES: O=Cc1c(O)ccc2cc(-c3ccc(C(=O)NC4CCCNC4)s3)ccc12 (stereo not shown) [Compound 47]
- IC50 [1]: < 0.1 µM
- EC50 [2]: < 10 µM

SMILES: O=Cc1c(O)ccc2cc(-c3ccc(C(=O)NC4CCNCC4)cc3)ccc12 [Compound 48]
- IC50 [1]: < 0.1 µM
- EC50 [2]: < 10 µM

SMILES: O=Cc1c(O)ccc2cc(-c3ccc(C(=O)NC4CCCNC4)cc3)ccc12 (stereo not shown) [Compound 49]
- IC50 [1]: < 0.1 µM
- EC50 [2]: < 10 µM

SMILES: CN1CCN(C(=O)c2ccc(-c3ccc4c(C=O)c(O)ccc4c3)cn2)CC1 [Compound 50]
- IC50 [1]: < 1 µM
- EC50 [2]: < 10 µM

SMILES: CN(C)C(=O)CCc1ccc2c(C=O)c(O)ccc2c1 [Compound 51]
- IC50 [1]: < 1 µM
- EC50 [2]: < 10 µM

SMILES: O=Cc1c(O)ccc2cc(CCC(=O)N3CCOCC3)ccc12 [Compound 52]
- IC50 [1]: < 1 µM
- EC50 [2]: < 10 µM

SMILES: O=Cc1c(O)ccc2cc(-c3ccc(C(=O)N4CCNCC4)s3)ccc12 [Compound 53]
- IC50 [1]: < 1 µM
- EC50 [2]: < 10 µM

SMILES: O=Cc1c(O)ccc2cc(N3CCOCC3)ccc12 [Compound 54]
- IC50 [1]: > 1 µM
- EC50 [2]: > 10 µM

SMILES: NCCN1CCN(C(=O)c2ccc(-c3ccc4c(C=O)c(O)ccc4c3)s2)CC1 [Compound 55]
- IC50 [1]: < 1 µM
- EC50 [2]: < 10 µM

SMILES: CN1CCN(C(=O)c2ccc(-c3ccc4c(C=O)c(O)ccc4c3)nc2)CC1 [Compound 57]
- IC50 [1]: < 1 µM
- EC50 [2]: < 10 µM

SMILES: CN1CCN(c2ccc3c(C=O)c(O)ccc3c2)CC1 [Compound 58, 2-Hydroxy-6-(4-methyl-piperazin-1-yl)-naphthalene-1-carbaldehyde hydrochloride]
- IC50 [1]: > 1 µM
- EC50 [2]: < 10 µM

SMILES: O=Cc1c(O)ccc2cc(N3CCCC3)ccc12 [Compound 59]
- IC50 [1]: > 1 µM
- EC50 [2]: > 10 µM

SMILES: CN1CCN(C(=O)c2csc(-c3ccc4c(C=O)c(O)ccc4c3)n2)CC1 [Compound 60]
- IC50 [1]: < 0.1 µM
- EC50 [2]: < 10 µM

SMILES: CN1CCN(C(=O)c2cnc(-c3ccc4c(C=O)c(O)ccc4c3)s2)CC1 [Compound 61]
- IC50 [1]: < 0.1 µM
- EC50 [2]: < 10 µM

SMILES: CN1CCCCC1CNC(=O)c1ccc(-c2ccc3c(C=O)c(O)ccc3c2)s1 (stereo not shown) [Compound 62]
- IC50 [1]: < 0.1 µM
- EC50 [2]: < 10 µM

SMILES: CN1CCN(C(=O)/C=C/c2ccc3c(C=O)c(O)ccc3c2)CC1 [Compound 63]
- IC50 [1]: < 1 µM
- EC50 [2]: < 10 µM

SMILES: CSc1ncc(-c2ccc3c(C=O)c(O)ccc3c2)cn1 [Compound 64]
- IC50 [1]: > 1 µM
- EC50 [2]: > 10 µM

SMILES: Cc1nc(-c2ccc3c(C=O)c(O)ccc3c2)sc1C(=O)N1CCN(C)CC1 [Compound 65]
- IC50 [1]: < 0.1 µM
- EC50 [2]: < 10 µM

SMILES: CN1CCN(C(=O)c2cc(-c3ccc4c(C=O)c(O)ccc4c3)ccn2)CC1 [Compound 66]
- IC50 [1]: < 1 µM
- EC50 [2]: < 10 µM

SMILES: CN(C1CCCN(c2ccc3c(C=O)c(O)ccc3c2)C1)S(C)(=O)=O (stereo not shown) [Compound 123]
- IC50 [1]: < 1 µM

SMILES: CS(=O)(=O)NC1CCN(c2ccc3c(C=O)c(O)ccc3c2)CC1 [Compound 175]
- IC50 [1]: > 1 µM
